# Like-named read-outs stand apart in the source and are kept apart here.
# Legend:
# Assay type in all cases: biochemical
# [1] = biological target: T1, IAPP fibrils (Homo sapiens, UniProt P10997); experiment: Thioflavin T fluorometry - disruption of type 2 diabetes IAPP fibrils; conditions: 25 μM pre-fibrillized IAPP, 37° C., 3 days, read-out: % Inhibition IAPP (result ± S.D.)
# T1 construct: purchased Bachem Inc
# T1 sequence (P10997 34-70 limits assumed): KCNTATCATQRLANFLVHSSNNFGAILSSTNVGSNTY
# Experimental: In this assay Thioflavin T binds specifically to fibrillar amyloid, and this binding produces a fluorescence enhancement at 485 nm that is directly proportional to the amount of IAPP fibrils present. The higher the fluorescence, the greater the amount of IAPP fibrils present (Naki et al, Lab. Invest. 65:104-110, 1991; Levine III, Protein Sci. 2:404-410, 1993; Amyloid: Int. J. Exp. Clin. Invest. 2:1-6, 1995).
# (§1) In this study, 25 μM of pre-fibrillized IAPP (Bachem Inc) was incubated at 37° C. for 3 days either alone, or in the presence of one of the compounds or EDTA (at IAPP:test compound weight ratios of 1:1, 1:0.1, 1:0.01 or 1:0.001). Following 3-days of co-incubation, 50 μl of each incubation mixture was transferred into a 96-well microtiter plate containing 150 μl of distilled water and 50 μl of a Thioflavin T solution (i.e. 500 mM Thioflavin T in 250 mM phosphate buffer, pH 6.8). The fluorescence was read at 485 nm (444 nm excitation wavelength) using an ELISA plate fluorometer after subtraction with buffer alone or compound alone, as blank.
# [2] = biological target: T2, Aβ 1-42 fibrils (Homo sapiens, UniProt P05067); experiment: Circular dichroism spectroscopy of Aβ 1-42 fibrils; conditions: 3 days co-incubation, 25 μM Aβ 1-42 (FIG. 1, FIG. 2)
# T2 construct: purchased Bachem Inc
# Experimental: Circular dichroism (CD) spectroscopy is a method that can be used to determine the effects of test compounds to disrupt the secondary structure conformation of amyloid fibrils. In one study, as described in this example, circular dichroism spectroscopy was used to determine the effects of different compounds of the invention on β-sheet conformation of Aβ 1-42 fibrils. For this study, Aβ 1-42 (Bachem Inc., Torrance, Calif.) was first dissolved in a 2 mM NaOH solution, maintaining the pH of these solutions above 10. […] Aβ 1-42 was then incubated at 37° C. in the absence or presence of different compounds at an Aβ:test compound wt/wt ratios of 1:0.1, 1:1 and 1:10. After 3 days of incubation, CD spectra were recorded on a Jasco 810 spectropolarimeter (Easton, Md.). All CD spectra were collected with 0.05 cm quartz cells. Wavelength traces were scanned from 190-260 nm at 0.5 nm increments with a bandwidth of 5 nm, at a scan speed of 10 nm/minute, a response time of 32 seconds, and a data pitch of 0.5 nm. The whole system was equilibrated and continuously flushed with nitrogen at 10 ml/minute. […] Ellipticity in degrees was converted to MRE ([Q]; molar residue ellipticity) using the formula [Q]=100•[…]; where Q is the ellipticity in degrees; […]
# [3] = biological target: T2, Aβ 1-42 fibrils; experiment: Thioflavin T fluorometry - disruption of pre-formed Aβ 1-42 Alzheimer's fibrils; conditions: 25 μM pre-fibrillized Aβ 1-42, 37° C., 3 days, read-out: % Inhibition Aβ (result ± S.D.)
# Description: In one study, Thioflavin T fluorometry was used to determine the effects of the compounds, and of EDTA (as a negative control). In this assay Thioflavin T binds specifically to fibrillar amyloid, and this binding produces a fluorescence enhancement at 485 nm that is directly proportional to the amount of amyloid fibrils formed. The higher the fluorescence, the greater the amount of amyloid fibrils formed (Naki et al., Lab. Invest. 65:104-110, 1991; Levine III, Protein Sci. 2:404-410, 1993; Amyloid: Int. J. Exp. Clin. Invest. 2:1-6, 1995).
# as §1, with “Aβ 1-42” for “IAPP”, “Aβ:test” for “IAPP:test”
# [4] = biological target: T1, IAPP fibrils; experiment: Congo red binding assay with IAPP fibrils; conditions: 3-day incubation
# Experimental: (§2) In the Congo red binding assay the ability of a given test compound to alter amyloid (in this case, IAPP) binding to Congo red is quantified. In this assay, IAPP and test compounds were incubated for 3 days and then vacuum filtered through a 0.2 μm filter. The amount of IAPP retained in the filter was then quantitated following staining of the filter with Congo red. After appropriate washing of the filter, any lowering of the Congo red color on the filter in the presence of the test compound (compared to the Congo red staining of the amyloid protein in the absence of the test compound) was indicative of the test compound's ability to diminish/alter the amount of aggregated and congophilic IAPP.
# In the study, the ability of IAPP fibrils to bind Congo red in the absence or presence of increasing amounts of the compounds or EDTA (at IAPP:test compound weight ratios of 1:1, 1:0.1, 1:0.01 or 1:0.001) was determined.
# [5] = biological target: T2, Aβ 1-42 fibrils; experiment: Congo red binding assay with Aβ 1-42 fibrils; conditions: 3-day incubation
# Experimental: as §2, with “a” for “a given”, “Aβ)” for “IAPP)”, “Aβ 1-42” for “IAPP”, “Aβ.” for “IAPP.”
# In one study, the ability of Aβ fibrils to bind Congo red in the absence or presence of increasing amounts of the compounds or EDTA (at Aβ:test compound weight ratios of 1:1, 1:0.1, 1:0.01 or 1:0.001) was determined.
# [6] = biological target: T3, monomeric Aβ 1-42 (Homo sapiens, UniProt P05067); experiment: SDS-PAGE/Western blot of Aβ 1-42 after incubation with compounds; conditions: 25 μM pre-fibrillized Aβ 1-42, 37° C., 3 days, 0.2 μm filtrate, antibody 6E10
# T3 construct: purchased Bachem Inc
# Experimental: In this latter study, triplicate samples of pre-fibrillized Aβ 1-42 (25 μM) was incubated at 37° C. for 3 days, alone or in the presence of the compounds or EDTA. Five micrograms of each sample was then filtered through a 0.2 μm filter. Protein recovered from the filtrate was then loaded, and ran on a 10-20% Tris-Tricine SDS-PAGE, blotted to nitrocellulose and detected using an Aβ-antibody (clone 6E10; Senetek).
# [7] = IAPP:test compound wt/wt ratio 1:0.001
# [8] = IAPP:test compound wt/wt ratio 1:0.1
# [9] = IAPP:test compound wt/wt ratio 1:1
# [10] = Aβ:test compound wt/wt ratio 1:0.1
# [11] = Aβ:test compound wt/wt ratio 1:1
# T2 sequence (P05067 672-713): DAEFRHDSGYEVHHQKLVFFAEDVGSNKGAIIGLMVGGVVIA
# T3 sequence (P05067 672-713): as above
smiles,measurement,setting,value
"Oc1ccc(CCc2ccc(O)c(O)c2)cc1O [Compound 4, 1,2-bis(3,4-dihydroxyphenyl)ethane]",inhibition,[1]; [7],17.3 ± 4.07%
same,inhibition,[1]; IAPP:test compound wt/wt ratio 1:0.01,63.2 ± 2.09%
same,inhibition,[1]; [8],96 ± 1%
same,inhibition,[1]; [9],99.7 ± 0.23%
same,disruption of β-sheet structure in Aβ 1-42 fibrils (CD minima at 218 nm),[2],marked disruption of β-sheet structure
same,inhibition,[3]; Aβ:test compound wt/wt ratio 1:0.001,26.8 ± 4.8%
same,inhibition,[3]; [10],97.4 ± 0.4%
same,inhibition,[3]; [11],98.5 ± 0.77%
same,"% Inhibition IAPP (result ± S.D.), Congo red binding",[4]; [7],0.0 ± 1.05%
same,"% Inhibition IAPP (result ± S.D.), Congo red binding",[4]; [8],25.4 ± 4.68%
same,"% Inhibition IAPP (result ± S.D.), Congo red binding",[4]; [9],68.9±1.22%
same,"% Inhibition Aβ (result ± S.D.), Congo red binding",[5]; Aβ:test compound wt/wt ratio 1:0.01,16.4 ± 2.02%
same,"% Inhibition Aβ (result ± S.D.), Congo red binding",[5]; [10],46.8 ± 1.28%
same,"% Inhibition Aβ (result ± S.D.), Congo red binding",[5]; [11],73.0 ± 0.90%
same,detection of Aβ 1-42 monomers (~4 kilodalton band) on Western blot,[6],not detected

# Reference: patent publication US20070276034A1, “Compounds, compositions and methods for the treatment of synucleinopathies” (priority 2002, published 2007)
